Results on one molecule are retold here after patent US10849904B2, “Methods for treatment of retinal disease by photoreceptor gene expression modulation” (University of Washington, priority 2015, dated 2020).

For assay [1], the system named is intact retinas from P12 wild type mice. The assay is described as follows: P12 mouse retinal explant culture, qPCR for rod gene expression. In kind it is cell-based. Conditions: P12 explants; for dose-response, Nrl, Nr2e3, and Rho expression: 2-3 days; for relative rhodopsin (Rho) expression: 1 μM, 2 days. An excerpt:
To identify functional Nr2e3 antagonists, compounds were cheminformatically searched and structural analogs of a putative Nr2e3 interacting compound with unknown function were collected. See FIGS. 2 and 4 for the structures of the compounds. The collected compounds were then screened in a physiologically relevant primary culture assay using intact retinas from postnatal day 12-13 (P12-13) C57BL/6 mice for suppression of Rho expression (See FIG. 6A). After a 2 day culture period with media containing DMSO or compounds at 1 μM, the retinas were collected and assessed Rho expression by qPCR. Rho was chosen because it is a well-described target of Nr2e3 in rod photoreceptors. […] This analysis also provided an initial structure-activity relationship.
Nr2e3 loss-of-function mutations lead to a reduction in rod gene expression. To determine whether the same was true for PR1 (FIG. 6D), explant cultures of P12 retina as above were treated and assayed for other rod photoreceptor genes. After 2 days in culture, PR1 decreased the expression of the rod specific genes Nrl, Nr2e3, Rho, Gnat1, and Pde6b compared to DMSO treatment by qPCR analysis (FIG. 6C). […] To determine the dose-response relationship between PR1 concentration and expression of rod genes, retinas from P12 mice were explanted in media containing DMSO or 0.1, 1, 5, or 10 μM PR1 for 2-3 days and assayed Nrl, Nr2e3, and Rho expression by qPCR. […] PR1 was tested to determine whether it could cause a reduction in Rho expression in human rod photoreceptors as well. Pairs of 113 day post-conception retinas were explanted in media with DMSO or 10 μM PR1 for 7 or 23 days. After 7 and 23 days in culture, PR1 decreased the expression of Rho compared to DMSO treatment (FIG. 6F), similar to the effect observed in mouse retinal explants.
(§1) Intact retinas without RPE from mice of various strains and ages as indicated were explanted on 0.4 μm pore tissue culture inserts (Millipore) as previously described (Ueki, Y., et al., P53 is required for the developmental restriction in Muller glial proliferation in mouse retina. Glia, 2012. 60(10): p. 1579-89; Ueki, Y., et al., A transient wave of BMP signaling in the retina is necessary for Muller glial differentiation. Development, 2015. 142(3): p. 533-43. Full media (DMEM/F12 (1:1) containing 1% dialyzed FBS, 1% Pen Strep, 0.3% D+ glucose, 2% B27, and 1% N2) changes were performed every other day and small molecules were used at 0.1 μM to 10 μM. Where indicated, EdU (Invitrogen) was included in the media at 5 μg/mL and visualized by staining with the Click-iT EdU Alexa Fluor kit (Thermo Fisher Scientific). For human retinal explant cultures, tissue from 113 day post-conception fetuses was obtained from the University of Washington Birth Defects Laboratory and explanted on 0.4 μm pore tissue culture inserts (Millipore) in media (Neurobasal A with 1% FBS, 1% Pen Strep, 1% N2, 1% B27) containing 10 μM Photoregulin1 or an equal volume of DMSO.
(§2) RNA was isolated using TRIzol (Invitrogen) and cDNA was synthesized using the iScript cDNA synthesis kit (Bio-Rad) following an intervening DNase treatment with RQ1 RNase-free DNase (Promega). SSO Fast (Bio-Rad) was used for quantitative real-time PCR. For analysis, values were normalized to Gapdh and ΔΔCt between DMSO and compound-treated samples was expressed as percent of DMSO treated controls (100*2^ΔΔCt). Two-way Student's t-tests were performed on ΔCt values.

The test system of another assay is retinas from P0 mice. The assay is described as follows: P0 mouse retinal explants: Western blot, qPCR, immunohistochemistry. The assay is classed as cell-based. Conditions: 1 μM. The protocol: Loss-of-function mutations in Nr2e3 cause an increase in the number of S-opsin+ photoreceptors and a decrease in rhodopsin expression. To determine whether PR1 has similar effects on developing photoreceptors, retinas from P0 mice were explanted in media containing DMSO or 1 μM PR1 and assessed the level of rod genes with Western blots and qPCR after two to five days in vitro (FIG. 7A). […] Expression of additional genes was tested using qPCR. After 2 days in culture PR1 decreased the expression of the rod specific genes Nrl, Nr2e3, Rho, and Gnat1 compared to DMSO (FIG. 7D).
as §1, §2
Retinal explants or eyecups were fixed in 4% PFA in 1×PBS for 20 minutes at room temperature and then cryoprotected in 30% sucrose in 1×PBS overnight at 4° C. Samples were embedded in OCT (Sakura Finetek), frozen on dry ice, and then sectioned at 14-16 μm on a cryostat (Leica). Slides were blocked with a solution containing 10% Normal Horse Serum (Vector Labs) and 0.5% Triton X-100 (Sigma-Aldrich) in 1×PBS for 1 hour at room temperature and then stained overnight at 4° C. with primary antibodies diluted in blocking solution. Slides were washed three times with 1×PBS the following day and then incubated in secondary antibodies (Life Technologies) diluted in blocking solution for 2 hours at room temperature, stained with DAPI (Sigma-Aldrich), washed, and coverslipped using Fluoromount-G (SouthernBiotech). An Olympus FluoView FV1000 was used for confocal microscopy.
Retinal explants or retinas were homogenized in lysis buffer (50 mM Tris, 100 mM NaCl, 5 mM EDTA, 0.1% SDS, 1% Triton X-100, 2.5% glycerol, and 1× protease inhibitor cocktail) and equal amounts of protein samples were loaded and run in a 4-20% SDS gel (Bio-Rad). Protein was transferred to a PVDF membrane (Thermo Fisher Scientific), blocked (5% BSA and 0.1% Tween 20 in 1×PBS) and stained with primary antibodies (Supplemental Table S2) and then HRP-conjugated secondaries (Bio-Rad) diluted in blocking solution. Signals were visualized on X-ray film with SuperSignal West Dura Extended Duration Substrate (Thermo Fisher Scientific) and quantified using ImageJ software (NIH).
In general terms: Immunoblotting shows a protein as a band on a membrane.

Molecules are shown by their SMILES. Entries after “also recorded” stand apart in the source; their conditions may differ.

Take `Cc1cc(C)cc(NC(=O)CCc2nc3sc4c(c3c(=O)[nH]2)CCCC4)c1` [PR1, N-(3,5-dimethylphenyl)-3-(4-oxo-5,6,7,8-tetrahydro-3H-[1]benzothiolo[2,3-d]pyrimidin-2-yl)propanamide]: the “dose-response, Nrl, Nr2e3, and Rho expression” value in assay [1] (0.1 uM) is “Some effect”. Moreover, in assay [1] (vs DMSO), the “relative rhodopsin (Rho) expression” value is given as “substantially decrease Rho expression; also recorded: decreased”. Moreover, the “relative rhodopsin (Rho) expression” value in assay [1] (vs DMSO, listed as CA88) is given as “reducing rhodopsin expression”. Further, in assay [1] (2 days in culture, vs DMSO), the Crx expression entry was “did not significantly decrease”, the Gnat1 expression entry is listed as “decreased”, the Gnb1 expression entry is “did not significantly decrease” and the Nr2e3 expression entry is on record as “decreased”. In assay [1] (2 days in culture, vs DMSO), the Nrl expression entry is listed as “decreased” and the Pde6b expression result is given as “decreased”. Also, in assay [1] (higher concentrations (1, 5, or 10 μM)), the “dose-response, Nrl, Nr2e3, and Rho expression” value is on record as “statistically significant reductions”. The “rhodopsin protein, Western blot” value in the assay with retinas from P0 mice (5 DIV, vs DMSO) is given as “less rhodopsin protein”. Besides, in the assay on retinas from P0 mice (2 days, qPCR, vs DMSO), the Crx expression result is reported as “did not significantly decrease”, the Gnat1 expression entry is “decreased”, the Gnb1 expression entry is reported as “did not significantly decrease” and the Nr2e3 expression result is “decreased”. For the same molecule, in the assay on retinas from P0 mice (2 days, qPCR, vs DMSO), the Nrl expression entry is given as “decreased”, the Otx2 expression result was “did not significantly decrease” and the Rho expression entry is reported as “decreased”. Moreover, the “rhodopsin immunoreactivity in sections” value with retinas from P0 mice (immunohistochemistry) was “almost complete absence of rhodopsin immunoreactivity”. Besides, the “Thrb (cone gene) expression” value in the assay on retinas from P0 mice (qPCR, vs DMSO) is “increased”. In the assay with retinas from P0 mice (vs DMSO), the “level of S opsin immunoreactivity in sectioned explants” value is given as “overall increase”.
